Species: Rattus norvegicus
Test: Open TG-GATES - Regimen: Single
Assay type: toxicity, organism-based, Sprague-Dawley
Parameters: regimen Single, gender Male, age 6 weeks
Settings: in vivo, po, 0 mg/kg, route gavage, dose level Control; for APTT / Bas / Eos / Fbg / Hb / Ht / Lym / MCH / MCHC / MCV / Mono / Neu / PT / Plat / RBC / Ret / WBC: tissue Blood; for KIDNEY_L / KIDNEY_R / KIDNEY_TOTAL: tissue Kidney; for LIVER: tissue Liver; for A/G / ALP / ALT / AST / BUN / CRE / Ca / Cl / DBIL / GLC / IP / K / LDH / Na / PL / RALB / TBIL / TC / TG / TP / gamma-GTP: tissue Plasma

What does the source list for CCSCC[C@H](N)C(=O)O [ETHIONINE]?
TERMINAL_BW (3 h): 218.5 g; APTT (3 h): 19 s; Bas (3 h): 0%; Eos (3 h): 1%; Fbg (3 h): 216.6 mg/dL; Hb (3 h): 13.4 g/dL; Ht (3 h): 39.8%; Lym (3 h): 79.6%; MCH (3 h): 21.1 pg; MCHC (3 h): 33.5%; MCV (3 h): 62.9 fL; Mono (3 h): 3%; Neu (3 h): 16.4%; PT (3 h): 12.5 s; Plat (3 h): 122 x10_4/uL; RBC (3 h): 632.8 x10_4/ul; Ret (3 h): 7.4%; WBC (3 h): 83.3 x10_2/uL; KIDNEY_L (3 h): 1 g; KIDNEY_R (3 h): 1 g; KIDNEY_TOTAL (3 h): 1.9 g; LIVER (3 h): 10.3 g; A/G (3 h): 1.6; ALP (3 h): 974.2 IU/L; ALT (3 h): 35.6 IU/L; AST (3 h): 64.4 IU/L; BUN (3 h): 11.6 mg/dL; CRE (3 h): 0.4 mg/dL; Ca (3 h): 10.6 mg/dL; Cl (3 h): 100.6 meq/L; DBIL (3 h): 0.066 mg/dL; GLC (3 h): 196.6 mg/dL; IP (3 h): 9.3 mg/dL; K (3 h): 3.9 meq/L; LDH (3 h): 172.8 IU/L; Na (3 h): 140.2 meq/L; PL (3 h): 136.8 mg/dL; RALB (3 h): 3.3 g/dL; TBIL (3 h): 0.1 mg/dL; TC (3 h): 70.6 mg/dL; TG (3 h): 80.8 mg/dL; TP (3 h): 5.4 g/dL; gamma-GTP (3 h): 1 IU/L; TERMINAL_BW (6 h): 211.6 g; APTT (6 h): 18.9 s; Bas (6 h): 0%; Eos (6 h): 1%; Fbg (6 h): 229 mg/dL; Hb (6 h): 13.6 g/dL; Ht (6 h): 40%; Lym (6 h): 81.8%; MCH (6 h): 21.3 pg; MCHC (6 h): 34.1%; MCV (6 h): 62.5 fL; Mono (6 h): 2.8%; Neu (6 h): 13.2%; PT (6 h): 12.8 s; Plat (6 h): 111.7 x10_4/uL; RBC (6 h): 640.6 x10_4/ul; Ret (6 h): 6.9%; WBC (6 h): 79.1 x10_2/uL; KIDNEY_L (6 h): 1 g; KIDNEY_R (6 h): 0.9 g; KIDNEY_TOTAL (6 h): 1.9 g; LIVER (6 h): 9 g; A/G (6 h): 1.5; ALP (6 h): 1036.8 IU/L; ALT (6 h): 38.6 IU/L; AST (6 h): 70.6 IU/L; BUN (6 h): 10.6 mg/dL; CRE (6 h): 0.4 mg/dL; Ca (6 h): 10.4 mg/dL; Cl (6 h): 102.4 meq/L; DBIL (6 h): 0.076 mg/dL; GLC (6 h): 196 mg/dL; IP (6 h): 9.5 mg/dL; K (6 h): 3.7 meq/L; LDH (6 h): 189 IU/L; Na (6 h): 140.6 meq/L; PL (6 h): 145 mg/dL; RALB (6 h): 3.3 g/dL; TBIL (6 h): 0.1 mg/dL; TC (6 h): 78 mg/dL; TG (6 h): 88.6 mg/dL; TP (6 h): 5.5 g/dL; gamma-GTP (6 h): 1 IU/L; TERMINAL_BW (9 h): 213.3 g; APTT (9 h): 19 s; Bas (9 h): 0%; Eos (9 h): 1%; Fbg (9 h): 224.8 mg/dL; Hb (9 h): 13 g/dL; Ht (9 h): 38.3%; Lym (9 h): 76.8%; MCH (9 h): 21.2 pg; MCHC (9 h): 34%; MCV (9 h): 62.4 fL; Mono (9 h): 2.4%; Neu (9 h): 19.2%; PT (9 h): 13 s; Plat (9 h): 123.8 x10_4/uL; RBC (9 h): 615 x10_4/ul; Ret (9 h): 6.9%; WBC (9 h): 90.6 x10_2/uL; KIDNEY_L (9 h): 1 g; KIDNEY_R (9 h): 1 g; KIDNEY_TOTAL (9 h): 1.9 g; LIVER (9 h): 9.1 g; A/G (9 h): 1.5; ALP (9 h): 936 IU/L; ALT (9 h): 31.2 IU/L; AST (9 h): 63 IU/L; BUN (9 h): 10 mg/dL; CRE (9 h): 0.4 mg/dL; Ca (9 h): 10.4 mg/dL; Cl (9 h): 102.6 meq/L; DBIL (9 h): 0.062 mg/dL; GLC (9 h): 203.4 mg/dL; IP (9 h): 9.4 mg/dL; K (9 h): 3.6 meq/L; LDH (9 h): 187.2 IU/L; Na (9 h): 141.2 meq/L; PL (9 h): 140 mg/dL; RALB (9 h): 3.3 g/dL; TBIL (9 h): 0.1 mg/dL; TC (9 h): 79.6 mg/dL; TG (9 h): 53.6 mg/dL; TP (9 h): 5.5 g/dL; gamma-GTP (9 h): 1 IU/L; TERMINAL_BW (24 h): 228.7 g; APTT (24 h): 20.7 s; Bas (24 h): 0%; Eos (24 h): 1%; Fbg (24 h): 226 mg/dL; Hb (24 h): 14 g/dL; Ht (24 h): 41.5%; Lym (24 h): 80.6%; MCH (24 h): 21.8 pg; MCHC (24 h): 33.8%; MCV (24 h): 64.4 fL; Mono (24 h): 2.6%; Neu (24 h): 14.8%; PT (24 h): 12.1 s; Plat (24 h): 126 x10_4/uL; RBC (24 h): 644.2 x10_4/ul; Ret (24 h): 6.6%; WBC (24 h): 105.3 x10_2/uL; KIDNEY_L (24 h): 1 g; KIDNEY_R (24 h): 1 g; KIDNEY_TOTAL (24 h): 2 g; LIVER (24 h): 11.1 g; A/G (24 h): 1.5; ALP (24 h): 936 IU/L; ALT (24 h): 41 IU/L; AST (24 h): 66.8 IU/L; BUN (24 h): 14.4 mg/dL; CRE (24 h): 0.4 mg/dL; Ca (24 h): 10.7 mg/dL; Cl (24 h): 102 meq/L; DBIL (24 h): 0.096 mg/dL; GLC (24 h): 211.6 mg/dL; IP (24 h): 8.1 mg/dL; K (24 h): 3.8 meq/L; LDH (24 h): 183.8 IU/L; Na (24 h): 140.2 meq/L; PL (24 h): 156.6 mg/dL; RALB (24 h): 3.4 g/dL; TBIL (24 h): 0.1 mg/dL; TC (24 h): 81 mg/dL; TG (24 h): 99.2 mg/dL; TP (24 h): 5.7 g/dL; gamma-GTP (24 h): 1.2 IU/L

Reference: ChEMBL document CHEMBL3885861, “Open TG-GATES”
